Test results as given in patent US9221814B2, “Heterocyclic guanidine F1F0-atpase inhibitors and therapeutic uses thereof” (Lycera Corporation, priority 2012, dated 2015).
Read-outs that look alike come from different tables or passages of the source.

Tests used:
F1F0-ATPase = target: T1, F1F0-ATPase (Bos taurus, UniProt P13621); test: Inhibition of F1F0-ATPase activity in synthesizing ATP (ATP synthesis inhibition); assay type: biochemical; conditions: detection limit IC50=16 μM, read-out: ATP Syn IC50
T1 construct: from tissue
Procedure: (§1) Exemplary compounds described in above Examples were tested for activity against F1F0-ATPase by measuring the ability of the compounds to inhibit ATP synthesis. In addition, the compounds were assessed for cytotoxicity in Ramos cells. Inhibition of F1F0-ATPase activity in synthesizing ATP and cytotoxicity in Ramos cells were measured according to the procedures described in K. M. Johnson et al. Chemistry & Biology 2005, 12, 485-496.

Ramos cells = test: Cytotoxicity in Ramos cells; assay type: cell-based; conditions: detection limit EC50=16 μM, read-out: Ramos Cell EC50
Procedure: as §1

Row | IC50 (F1F0-ATPase) | SMILES | EC50 (Ramos cells) | EC50 (Ramos cells; Homo sapiens)
1 | < 5 µM | CCn1nc(C)cc1C(=O)/N=C(\Nc1cc(-c2ccc(F)cc2)n[nH]1)NC(C)(C)C [Compound A-53] | < 5 µM | 
2 | < 5 µM | CCn1nc(C)cc1C(=O)/N=C(\Nc1cc(-c2ccc(F)cc2)n[nH]1)NC(C)C [Compound A-54] | < 5 µM | 
3 | 5 to 16 µM | CCn1nc(C)cc1C(=O)N=C(Nc1cc(-c2ccc(F)cc2)n[nH]1)NC(C)COC (centres unmarked) [Compound A-55] | 5 to 16 µM | 
4 | < 5 µM | CC(C)n1ccc(C(=O)/N=C(\Nc2cc(-c3ccc(F)cc3)n[nH]2)NC(C)(C)C)n1 [Compound A-56] | 5 to 16 µM | 
5 | 5 to 16 µM | CC(C)N/C(=N/C(=O)c1ccn(C(C)C)n1)Nc1cc(-c2ccc(F)cc2)n[nH]1 [Compound A-57] | 5 to 16 µM | 
6 | < 5 µM | CCCn1ccc(C(=O)/N=C(\Nc2cc(-c3ccc(F)cc3)n[nH]2)NC(C)(C)C)n1 [Compound A-58] | < 5 µM | 
7 | 5 to 16 µM | CCCn1ccc(C(=O)N=C(Nc2cc(-c3ccc(F)cc3)n[nH]2)NC(C)C)n1 [Compound A-59] |  | 5 to 16 µM
8 | < 5 µM | CCn1ccc(C(=O)/N=C(\Nc2cc(-c3ccc(F)cc3)n[nH]2)NC(C)(C)C)n1 [Compound A-60] | 5 to 16 µM | 
9 | < 5 µM | CC(C)c1cc(C(=O)/N=C(\Nc2cc(-c3ccc(F)cc3)n[nH]2)NC(C)(C)C)on1 [Compound A-61] | < 5 µM | 
10 | > 16 µM | CCn1ccc(C(=O)/N=C(\Nc2cc(-c3ccc(F)cc3)n[nH]2)NC(C)C)n1 [Compound A-62] | > 16 µM | 
11 | < 5 µM | CC(C)N/C(=N/C(=O)c1cc(C(C)C)no1)Nc1cc(-c2ccc(F)cc2)n[nH]1 [Compound A-63] | 5 to 16 µM | 
12 | < 5 µM | Cc1cc(C(=O)N=C(Nc2cc(-c3ccc(Cl)cc3)n[nH]2)NC(C)C)n(C)n1 [Compound A-64] |  | 5 to 16 µM
13 | < 5 µM | Cc1cc(C(=O)/N=C(\Nc2cc(-c3ccc(Cl)cc3)n[nH]2)NC(C)(C)C)n(C)n1 [Compound A-65] | 5 to 16 µM | 
14 | < 5 µM | Cc1cc(C(=O)/N=C(/NCC(C)C)Nc2cc(-c3ccc(Cl)cc3)n[nH]2)n(C)n1 [Compound A-66] | < 5 µM | 
15 | < 5 µM | COCC(C)NC(=NC(=O)c1cc(C)nn1C)Nc1cc(-c2ccc(Cl)cc2)n[nH]1 (centres unmarked) [Compound A-67] |  | 5 to 16 µM
16 | < 5 µM | Cc1oncc1C(=O)/N=C(\Nc1cc(-c2ccc(Cl)cc2)n[nH]1)NC(C)(C)C [Compound A-68] | < 5 µM | 
17 | > 16 µM | Cc1oncc1C(=O)/N=C(/NCC(C)C)Nc1cc(-c2ccc(Cl)cc2)n[nH]1 [Compound A-69] | > 16 µM | 
18 | > 16 µM | Cc1oncc1C(=O)N=C(Nc1cc(-c2ccc(Cl)cc2)n[nH]1)NC(C)C [Compound A-70] |  | > 16 µM
19 | 5 to 16 µM | CC(C)N/C(=N/C(=O)c1cc(C(C)(C)C)nn1C)Nc1cc(-c2ccc(Cl)cc2)n[nH]1 [Compound A-71] | < 5 µM | 
20 | < 5 µM | Cn1nc(C(C)(C)C)cc1C(=O)/N=C(\Nc1cc(-c2ccc(Cl)cc2)n[nH]1)NC(C)(C)C [Compound A-72] | < 5 µM | 
21 | < 5 µM | CC(C)CN/C(=N/C(=O)c1cc(C(C)(C)C)nn1C)Nc1cc(-c2ccc(Cl)cc2)n[nH]1 [Compound A-73] | < 5 µM | 

Row | IC50 (F1F0-ATPase) | SMILES | EC50 (Ramos cells) | EC50 (Ramos cells; Homo sapiens)
22 | < 5 µM | Cn1nc(C(C)(C)C)cc1C(=O)/N=C(\Nc1cc(-c2ccc(Cl)cc2)n[nH]1)NC1CCCC1 [Compound A-74] | < 5 µM | 
23 | 5 to 16 µM | COCC(C)NC(=NC(=O)c1cnoc1C)Nc1cc(-c2ccc(Cl)cc2)n[nH]1 (centres unmarked) [Compound A-75] |  | > 16 µM
24 | < 5 µM | COC[C@H](C)N/C(=N/C(=O)c1cc(C(C)(C)C)nn1C)Nc1cc(-c2ccc(Cl)cc2)n[nH]1 [Compound A-76] | < 5 µM | 
25 | 5 to 16 µM | Cc1oncc1C(=O)/N=C(\Nc1cc(-c2cc(F)cc(F)c2)n[nH]1)NC(C)C [Compound A-77] | > 16 µM | 
26 | < 5 µM | Cc1oncc1C(=O)/N=C(\Nc1cc(-c2cc(F)cc(F)c2)n[nH]1)NC1CCCC1 [Compound A-78] | > 16 µM | 
27 | > 16 µM | Cc1oncc1C(=O)/N=C(/NCC(C)C)Nc1cc(-c2cc(F)cc(F)c2)n[nH]1 [Compound A-79] | > 16 µM | 
28 | 5 to 16 µM | COC[C@H](C)N/C(=N/C(=O)c1cnoc1C)Nc1cc(-c2cc(F)cc(F)c2)[nH]n1 [Compound A-80] | > 16 µM | 
29 | < 5 µM | Cc1cc(C(=O)N=C(Nc2cc(-c3cc(F)cc(F)c3)n[nH]2)NC(C)C)n(C)n1 [Compound A-81] |  | 5 to 16 µM
30 | < 5 µM | Cc1cc(C(=O)/N=C(\Nc2cc(-c3cc(F)cc(F)c3)n[nH]2)NC2CCCC2)n(C)n1 [Compound A-82] | 5 to 16 µM | 
31 | < 5 µM | Cc1cc(C(=O)/N=C(/NCC(C)C)Nc2cc(-c3cc(F)cc(F)c3)n[nH]2)n(C)n1 [Compound A-83] | 5 to 16 µM | 
32 | 5 to 16 µM | COC[C@H](C)N/C(=N/C(=O)c1cc(C)nn1C)Nc1cc(-c2cc(F)cc(F)c2)[nH]n1 [Compound A-84] | > 16 µM | 
33 | 5 to 16 µM | Cc1oncc1C(=O)/N=C(/NCc1ccc(F)cc1Cl)Nc1cc(-c2ccc(Cl)cc2)n[nH]1 [Compound A-85] | 5 to 16 µM | 
34 | < 5 µM | Cc1cc(C(=O)/N=C(/NCc2ccc(F)cc2Cl)Nc2cc(-c3ccc(F)cc3)n[nH]2)n(C)n1 [Compound A-86] | 5 to 16 µM | 
35 | < 5 µM | Cc1oncc1C(=O)/N=C(\Nc1cc(-c2cc(F)cc(F)c2)n[nH]1)NC(C)(C)C [Compound A-87] | < 5 µM | 
36 | < 5 µM | CCC(C)N/C(=N/C(=O)c1cnoc1C)Nc1cc(-c2cc(F)cc(F)c2)n[nH]1 (centres unmarked) [Compound A-88] | 5 to 16 µM | 
37 | > 16 µM | Cc1oncc1C(=O)/N=C(\Nc1cc(-c2ccc(Cl)cc2)[nH]n1)NC1CCCC1 [Compound A-89] | > 16 µM | 
38 | > 16 µM | CCC(C)N/C(=N/C(=O)c1cnoc1C)Nc1cc(-c2ccc(Cl)cc2)n[nH]1 (centres unmarked) [Compound A-90] | > 16 µM | 
39 | < 5 µM | Cc1ccc(-c2cc(N/C(=N\C(=O)c3cnoc3C)NC3CCCC3)n[nH]2)cc1F [Compound A-91] | < 5 µM | 
40 | < 5 µM | Cc1ccc(-c2cc(N/C(=N\C(=O)c3cnoc3C)NC3(C)CCCC3)[nH]n2)cc1F [Compound A-92] | < 5 µM | 
41 | < 5 µM | Cc1ccc(-c2cc(N/C(=N\C(=O)c3cnoc3C)NC(C)(C)C)[nH]n2)cc1F [Compound A-93] | < 5 µM | 
42 | < 5 µM | Cc1ccc(-c2cc(N/C(=N\C(=O)c3cnoc3C)NC3CCC3)[nH]n2)cc1F [Compound A-94] | 5 to 16 µM | 

Row | IC50 (F1F0-ATPase) | SMILES | EC50 (Ramos cells) | EC50 (Ramos cells; Homo sapiens)
43 | < 5 µM | Cc1oncc1C(=O)/N=C(\Nc1cc(-c2cc(F)cc(F)c2)n[nH]1)NC1(C)CCCC1 [Compound A-95] | < 5 µM | 
44 | < 5 µM | Cc1oncc1C(=O)/N=C(\Nc1cc(-c2cc(F)cc(Cl)c2)n[nH]1)NC(C)(C)C [Compound A-96] | < 5 µM | 
45 | < 5 µM | Cc1oncc1C(=O)N=C(Nc1cc(-c2cc(F)cc(Cl)c2)n[nH]1)NC1CCCC1 [Compound A-97] |  | < 5 µM
46 | < 5 µM | Cc1oncc1C(=O)/N=C(\Nc1cc(-c2cc(F)cc(Cl)c2)n[nH]1)NC1(C)CCCC1 [Compound A-98] | < 5 µM | 
47 | < 5 µM | Cc1oncc1C(=O)N=C(NCC(C)C)Nc1cc(-c2cc(F)cc(Cl)c2)n[nH]1 [Compound A-99] |  | 5 to 16 µM
48 | < 5 µM | Cc1oncc1C(=O)/N=C(\Nc1cc(-c2cc(F)cc(Cl)c2)n[nH]1)NC(C)C [Compound A-100] | < 5 µM | 
49 | < 5 µM | CCC(C)N/C(=N/C(=O)c1cnoc1C)Nc1cc(-c2cc(F)cc(Cl)c2)n[nH]1 (centres unmarked) [Compound A-101] | < 5 µM | 
50 | < 5 µM | Cc1oncc1C(=O)/N=C(\Nc1cc(-c2cc(F)cc(Cl)c2)n[nH]1)NC1CCC1 [Compound A-102] | < 5 µM | 
51 | > 16 µM | Cc1oncc1C(=O)/N=C(/NCCCOC(C)C)Nc1cc(-c2cc(F)cc(Cl)c2)[nH]n1 [Compound A-103] | > 16 µM | 
52 | > 16 µM | CCOCCCN/C(=N/C(=O)c1cnoc1C)Nc1cc(-c2ccc(Cl)cc2)n[nH]1 [Compound A-104] | > 16 µM | 
53 | > 16 µM | CCOCCCN/C(=N/C(=O)c1cnoc1C)Nc1cc(-c2ccc(F)cc2)n[nH]1 [Compound A-105] | > 16 µM | 
54 | 5 to 16 µM | CCOCCCN/C(=N/C(=O)c1cnoc1C)Nc1cc(-c2ccc(C)c(F)c2)n[nH]1 [Compound A-106] | > 16 µM | 
55 | > 16 µM | Cc1cc(N/C(=N\C(=O)c2cc(C)oc2C(F)(F)F)NC(C)(C)C)[nH]n1 [Compound A-107] | > 16 µM | 
56 | < 5 µM | Cc1cc(N/C(=N\C(=O)c2cc(C)oc2C(F)(F)F)Nc2cc(F)cc(Cl)c2)n[nH]1 [Compound A-108] | 5 to 16 µM | 
57 | 5 to 16 µM | Cc1cc(N/C(=N\C(=O)c2cc(C)oc2C(F)(F)F)NCC(C)C)[nH]n1 [Compound A-109] | > 16 µM | 
58 | 5 to 16 µM | Cc1cc(N/C(=N\C(=O)c2cc(C)oc2C(F)(F)F)NCC(C)(C)C)n[nH]1 [Compound A-110] | > 16 µM | 
59 | 5 to 16 µM | CCC(C)N/C(=N/C(=O)c1cc(C)oc1C(F)(F)F)Nc1cc(C)n[nH]1 (centres unmarked) [Compound A-111] | > 16 µM | 
60 | > 16 µM | Cc1cc(N/C(=N\C(=O)c2cc(C)oc2C(F)(F)F)NC(C)C)n[nH]1 [Compound A-112] | > 16 µM | 
61 | > 16 µM | COC[C@H](C)N/C(=N/C(=O)c1cc(C)oc1C(F)(F)F)Nc1cc(C)n[nH]1 [Compound A-113] | > 16 µM | 
